Measurements reported in PubChem BioAssay AID1996.
≈ marks a conversion by molar mass, not a printed value.

Conditions: buffer; pH 7.4; 200.0 µM

Structure (SMILES) | solubility kinetic [µg/mL]
CCOc1ccc(C(=O)NCC(=O)N2CCC(C)CC2)cc1OCC | > 52.3
COc1ccccc1Nc1nc(N)nc(CN2CC(C)CC(C)C2)n1 (centres undefined) | 14 (≈ 40.9 µM)
OCCN1CCN(C(c2cccs2)c2ccc3cccnc3c2O)CC1 (centres undefined) | 44 (≈ 119 µM)
O=c1c2ccccc2nc2n1C(CSc1ccccc1)CS2 (centres undefined) | > 49
Cc1cc(C(=O)N(C)CC(=O)Nc2ccc(F)c(F)c2F)no1 | > 49.1
COc1cc(OC)cc(C(=O)NC2CCCCCCC2)c1 | 8.6 (≈ 29.5 µM)
CCC(C)c1ccc(NC(=O)N2CCOCC2)cc1 (centres undefined) | 37.4 (≈ 143 µM)
CCNc1nc(NCc2ccccc2)nc(SCC(N)=O)n1 | 42.2 (≈ 133 µM)
COc1ccc(C(=O)OCC(=O)Nc2sccc2C(N)=O)cc1OC | 1 (≈ 2.74 µM)
COc1ccc(OCC(O)CN2C(=O)c3ccccc3C2=O)cc1 (centres undefined) | > 49.1
CC(=O)c1ccc(NC(=O)C[n+]2cccc(C)c2)cc1.[Cl-] | > 45.7
CCOC(=O)C1(Cc2cccc(F)c2)CCN(CC2CC2)CC1 | > 47.9
O=C(CC(Nc1cccc(Cl)c1Cl)C(=O)O)c1ccccc1 (centres undefined) | 43.2 (≈ 128 µM)
O=C1CN(C(=O)CNCc2ccc(Cl)cc2)c2ccccc2N1 | 39.7 (≈ 120 µM)
NS(=O)(=O)c1cccc(NS(=O)(=O)c2cccc(C(F)(F)F)c2)c1 | > 57.1
O=C(Nc1ccc(Cl)cc1)Nc1ccc(C(=O)N2CCOCC2)cc1 | 1.1 (≈ 3.06 µM)
O=C(CCN1C(=O)C2C3C=CC(C3)C2C1=O)NC1CCCCC1 (centres undefined) | > 47.5
Fc1cccc(CN2CCN(c3ccc(Cl)cc3)CC2)c1 | 4.1 (≈ 13.5 µM)
CC1=CC(C)C(C(=O)O)C(C(=O)N2CCN(C)CC2)C1 (centres undefined) | > 42.1
CN(c1ccc(OCC(=O)Nc2cc(Cl)ccc2C(=O)O)cc1)S(=O)(=O)c1ccc(F)cc1 | > 73.9

Structure (SMILES) | solubility kinetic [µg/mL]
O=C(CN1CCc2ccccc21)NC(=O)NC1CCCCC1 | 34.8 (≈ 115 µM)
O=C1Nc2ccc(S(=O)(=O)NCCCO)c3cccc1c23 | > 46
CCOC(=O)C1=C(C)C(c2ccc(OC)cc2)NC(=O)N1 (centres undefined) | > 43.5
CCc1cc2c(=O)oc(-c3ccc(F)cc3)nc2s1 | < 0.6
CC1(C)Cc2ccccc2-c2[nH]c(=S)[nH]c(=O)c21 | 30.1 (≈ 117 µM)
O=C(COC(=O)c1ccc(Br)o1)Nc1ccc(F)cc1[N+](=O)[O-] | 8.2 (≈ 21.2 µM)
CCCOC(=O)Nc1ccc(S(=O)(=O)Nc2ncccn2)cc1 | > 50.5
CCOc1nc(Nc2ccccc2F)nc(OCC)n1 | 10.4 (≈ 37.4 µM)
CCc1ccnc(NS(=O)(=O)c2ccc3c(c2)OCCO3)c1 | 7.2 (≈ 22.5 µM)
CCOC(=O)c1sc(=NC(=O)/C=C/c2ccccc2)n(C)c1C | < 0.4
CC(C)C(OC(=O)c1ccccc1)c1nccc2ccccc12 (centres undefined) | 6.9 (≈ 22.6 µM)
CC(Sc1nc(N)cc(N)n1)C(=O)NCC1CCCO1 (centres undefined) | > 44.6
CCCCNC(=S)N1CCN(c2nc3ccccc3s2)CC1 | 0.9 (≈ 2.69 µM)
CCC(=O)OCC(=O)Nc1cc([N+](=O)[O-])ccc1Cl | > 43
CC1CN(S(=O)(=O)c2cc(C(=O)N(C)Cc3cccs3)ccc2Cl)CC(C)O1 (centres undefined) | 64.6 (≈ 146 µM)
COc1ccc(NC(=O)C(Cc2cc(C)cc(C)c2)C(C)C(=O)O)cc1 (centres undefined) | 36.5 (≈ 103 µM)
O=C(COC(=O)CNC(=O)c1ccccc1)NCCCc1ccccc1 | 52.3 (≈ 148 µM)
COc1cccc(/C=C/C(=O)NCC2CCCCC2)c1 | 16.4 (≈ 60 µM)
N#Cc1cc2c(nc1Cl)CCC2 | 20.2 (≈ 113 µM)
CC1CCN(C(=O)CN2C(=O)C(=O)N(C)C2=O)c2ccccc2S1 (centres undefined) | > 52.1

Structure (SMILES) | solubility kinetic [µg/mL]
CC[n+]1ccc(C(=O)NCc2ccccc2)cc1.[Cl-] | > 41.5
Cc1cccc2cc(COC(=O)c3cccc([N+](=O)[O-])c3)c(=O)[nH]c12 | 1.5 (≈ 4.43 µM)
CN(C)c1c(N)c(=O)oc2ccccc12 | 27.3 (≈ 134 µM)
Cn1c(SCCc2ccc([N+](=O)[O-])cc2)nccc1=O | 25.9 (≈ 88.9 µM)
COc1ccc(CC(=O)Nc2cccc3ccccc23)cc1OC | 7.1 (≈ 22.1 µM)
CCOc1ccc(CCNC(=O)C2(c3ccccc3)CC2)cc1OCC | > 53
Cc1cc(NC(=O)NCC(F)(F)F)no1 | > 33.5
COc1ccc(NC(=S)Nc2cnc3ccccc3c2)c(OC)c1 | 45.1 (≈ 133 µM)
COc1cc(OC)c(NC(=O)C2CCCO2)cc1Cl (centres undefined) | > 42.9
O=C(CNC(=O)c1ccccc1F)OCC(=O)c1ccc(Cl)s1 | > 53.4
N#Cc1c(-c2ccccc2)nc(-c2cccnc2)[nH]c1=O | 40.2 (≈ 147 µM)
CN(C)c1ccc(NC(=O)CN2CCN(c3ccc(F)cc3)CC2)cc1 | 2.5 (≈ 7.01 µM)
Nc1nc(Nc2ccc(Cl)cc2)nc(NCc2ccco2)c1[N+](=O)[O-] | 1 (≈ 2.77 µM)
CCOC(=O)C1=C(O)/C(=C\c2cc(C)n(-c3ccccc3F)c2C)N=C1C | 32.6 (≈ 88.5 µM)
CN1CCCN(C(=O)COc2cccc(C(F)(F)F)c2)CC1 | > 47.4
Cc1c(C(=O)N2CCN(S(=O)(=O)c3ccccc3)CC2)oc2ccc(Br)cc12 | 6.8 (≈ 14.7 µM)
O=C(Nc1cccs1)N1CCN(c2ncccn2)CC1 | > 43.4
COc1cc(NC(=O)NC2Cc3ccccc3C2)cc(OC)c1 | < 0.3
Cc1ccnc(NC(=O)COc2ccc(Cl)cc2)n1 | 9.7 (≈ 34.9 µM)
